pIC50: −log10 of the molar value. ≈ marks a conversion by molar mass, not a printed value.

Biological target in one assay: not listed separately
Put plainly: Inhibition of HIV-1 integrase. Details: species or system Human immunodeficiency virus 1.
One may read the pIC50 as −log10 of the IC50, conventionally taken in molar units. `O=c1oc2ccccc2c(O)c1C(c1ccc(C(c2c(O)c3ccccc3oc2=O)c2c(O)c3ccccc3oc2=O)cc1)c1c(O)c2ccccc2oc1=O` had a pIC50 of 5.10.

Another assay has as its target Protein kinase C (PKC). As to the kind of experiment: Inhibition of PKC (unknown origin) using acetylated myelin basic protein (4 to 14 residues) as substrate incubated for [gamma-32P]-ATP incubated for 5 mins by scintillation counter analysis. It is filed as protein assay, Homo sapiens.
For orientation: IC50 means the concentration at which inhibition is half-maximal. For the compound `O=c1ccc2ccc(O)c(O)c2o1` [DAPHNETIN], the IC50 was 25.01 µM.

Another assay deals with cAMP-dependent protein kinase (PKA) (Homo sapiens, UniProt P22694+P17612+P22612). Put plainly: Inhibition of PKA (unknown origin) using Kemptide as substrate incubated for [gamma-32P]-ATP incubated for 5 mins by scintillation counter analysis. It counts as protein assay.
For `O=c1ccc2ccc(O)c(O)c2o1` [DAPHNETIN], the IC50 was 9.33 µM.

Another assay deals with T1, Hepatocyte growth factor receptor (Homo sapiens, UniProt P08581). Put plainly: Inhibition of c-Met (unknown origin).
T1 sequence (P08581 whole entry): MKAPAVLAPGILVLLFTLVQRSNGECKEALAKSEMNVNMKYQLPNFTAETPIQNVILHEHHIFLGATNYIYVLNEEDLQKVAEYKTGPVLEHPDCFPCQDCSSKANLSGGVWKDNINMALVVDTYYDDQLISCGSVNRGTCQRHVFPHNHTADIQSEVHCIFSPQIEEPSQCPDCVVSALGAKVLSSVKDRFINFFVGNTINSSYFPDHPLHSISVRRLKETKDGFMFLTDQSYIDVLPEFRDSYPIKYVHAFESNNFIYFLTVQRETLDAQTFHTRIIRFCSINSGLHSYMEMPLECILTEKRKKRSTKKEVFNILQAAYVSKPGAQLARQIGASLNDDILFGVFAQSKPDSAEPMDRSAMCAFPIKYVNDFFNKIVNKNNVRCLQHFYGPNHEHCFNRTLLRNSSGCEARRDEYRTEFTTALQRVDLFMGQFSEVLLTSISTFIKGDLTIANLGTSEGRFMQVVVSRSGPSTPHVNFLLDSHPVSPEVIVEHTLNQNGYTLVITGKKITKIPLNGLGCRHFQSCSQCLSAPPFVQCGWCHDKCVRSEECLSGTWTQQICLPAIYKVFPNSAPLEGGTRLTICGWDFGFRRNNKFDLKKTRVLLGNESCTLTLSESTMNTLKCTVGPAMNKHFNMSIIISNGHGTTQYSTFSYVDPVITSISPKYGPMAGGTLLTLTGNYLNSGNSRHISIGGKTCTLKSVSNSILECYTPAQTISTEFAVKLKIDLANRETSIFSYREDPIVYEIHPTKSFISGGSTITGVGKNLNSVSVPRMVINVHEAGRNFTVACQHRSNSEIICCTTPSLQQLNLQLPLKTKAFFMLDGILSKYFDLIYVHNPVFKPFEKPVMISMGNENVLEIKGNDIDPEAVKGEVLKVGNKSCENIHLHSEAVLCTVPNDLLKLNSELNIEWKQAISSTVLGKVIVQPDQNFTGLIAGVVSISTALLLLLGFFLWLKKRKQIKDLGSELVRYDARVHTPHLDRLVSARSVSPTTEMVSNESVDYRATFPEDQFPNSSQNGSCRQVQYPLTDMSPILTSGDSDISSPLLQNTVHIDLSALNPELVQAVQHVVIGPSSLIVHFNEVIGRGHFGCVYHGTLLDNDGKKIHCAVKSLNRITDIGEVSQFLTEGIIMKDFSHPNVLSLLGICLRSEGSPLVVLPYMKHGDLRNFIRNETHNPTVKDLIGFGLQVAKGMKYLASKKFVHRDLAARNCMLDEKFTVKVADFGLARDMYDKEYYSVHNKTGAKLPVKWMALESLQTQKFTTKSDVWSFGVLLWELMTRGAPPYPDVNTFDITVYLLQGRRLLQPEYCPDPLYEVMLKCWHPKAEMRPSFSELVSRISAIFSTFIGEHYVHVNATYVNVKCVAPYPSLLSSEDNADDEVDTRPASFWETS
Compound `O=c1cc(O)c2ccc(O)c(O)c2o1` gave a pIC50 of 4.00. Still for that read-out and setting: as for `O=c1oc2c(O)c(O)ccc2c(O)c1Cc1c(O)c2ccc(O)c(O)c2oc1=O`, the figure is 3.82.

Test system in a further assay: not listed separately
Put plainly: Inhibition of urease (unknown origin).
In turn, `O=c1oc2ccccc2c(O)c1C(c1c(O)c2ccccc2oc1=O)c1c[nH]c2ccccc12` showed a pIC50 of 4.32.

With `O=c1oc2ccccc2c(O)c1C(c1cccnc1)c1c(O)c2ccccc2oc1=O`, the pIC50 is 4.46. Still for that read-out and setting: with `O=c1oc2ccccc2c(O)c1C(c1ccc[nH]1)c1c(O)c2ccccc2oc1=O` the figure was 4.34; with `C/C=C/C(c1c(O)c2ccccc2oc1=O)c1c(O)c2ccccc2oc1=O`, 4.37.

In turn, `O=c1oc2ccccc2c(O)c1Cc1c(O)c2ccccc2oc1=O` [DICUMAROL] had a negative-log IC50 (pIC50) of 4.82.

The target in a further assay is T2, Alpha-glucosidase (Saccharomyces cerevisiae S288c, UniProt P53341+P38158+P07265). Put plainly: Inhibition of Baker's yeast alpha-glucosidase using pNPG as substrate assessed as release of p-nitrophenol preincubated for 10 mins followed by substrate addition and measured after 30 mins by microplate reader analysis. It is filed as protein assay.
Consider `COc1ccc(NC(=S)Nc2ccc(C(c3c(O)c4ccccc4oc3=O)c3c(O)c4ccccc4oc3=O)cc2)cc1`, for which the IC50 stood at 13.5 µM. On the same count and under the same terms, with `COc1ccccc1NC(=S)Nc1ccc(C(c2c(O)c3ccccc3oc2=O)c2c(O)c3ccccc3oc2=O)cc1` the figure was 104.62 µM; with `COc1cccc(NC(=S)Nc2ccc(C(c3c(O)c4ccccc4oc3=O)c3c(O)c4ccccc4oc3=O)cc2)c1`, 25.31 µM.

Biological target in a further assay: not listed separately
As to the kind of experiment: Inhibition of porcine pancreas alpha-amylase using CNP-G3 as substrate preincubated for 10 mins followed by substrate addition and measured after 30 mins by microplate reader analysis. The arrangement: species or system Sus scrofa.
Compound `COc1cc2cc(Oc3ccc4ccc(=O)oc4c3)c(=O)oc2cc1O` [DAPHNORETIN] registered an IC50 of 90 µg/mL (≈ 255 µM).

The next assay concerns the target T2, Alpha-glucosidase. As to the kind of experiment: Inhibition of Saccharomyces cerevisiae alpha-glucosidase using pNPG as substrate incubated for 30 mins by microplate reader analysis. It is filed as protein assay.
The compound `O=c1ccc2ccc(O)c(-c3c(O[C@@H]4OC(CO)[C@@H](O)C(O)C4O)ccc4ccc(=O)oc34)c2o1` (some centres not stated) registered an IC50 of 760 µg/mL (≈ 1570 µM). The same measure, in the same setting: with `COc1cc2c(O)c(Oc3cc(O[C@@H]4O[C@H](CO)[C@@H](O)[C@H](O)[C@H]4O[C@@H]4O[C@H](CO)[C@@H](O)[C@H](O)[C@H]4O)c4ccc(=O)oc4c3)c(=O)oc2cc1O` the figure was 231 µg/mL (≈ 326 µM). Still for that read-out and setting: with `COc1cc2cc(Oc3ccc4ccc(=O)oc4c3)c(=O)oc2cc1O` [DAPHNORETIN] the figure was 86 µg/mL (≈ 244 µM); with `O=c1ccc2ccc(Oc3cc4cc(O)c(O)cc4oc3=O)cc2o1` [EDGEWORTHIN], 49.6 µg/mL (≈ 147 µM).

The next assay concerns the target DNA polymerase beta (Homo sapiens, UniProt P06746). Put plainly: Inhibition of DNA polymerase beta (unknown origin).
In turn, `O=c1oc2ccccc2c(O)c1C(c1ccc(NC(=S)Nc2ccc([N+](=O)[O-])cc2)cc1)c1c(O)c2ccccc2oc1=O` showed a negative logarithm of the IC50 (pIC50) of 4.61.

For the compound `COc1cc2c(O)c(Cc3ccc4ccc(=O)oc4c3)c(=O)oc2cc1O`, the pIC50 is 3.91. Still for that read-out and setting: as for `O=c1ccc2ccc(Cc3c(O)c4cc(O)c(O)cc4oc3=O)cc2o1`, the figure is 4.02; as for `O=c1ccc2ccc(Cc3cc4ccc(O)cc4oc3=O)cc2o1`, 4.65.

Biological target in another assay: not listed separately
As to the kind of experiment: Inhibition of HIV-1 wild-type integrase using U5A/U5B-2 labeled double-stranded DNA as substrate by beta radiation counter analysis. The arrangement: species or system Human immunodeficiency virus 1.
`O=C(Oc1ccc(C(c2c(O)c3ccccc3oc2=O)c2c(O)c3ccccc3oc2=O)cc1)c1ccc(C(c2c(O)c3ccccc3oc2=O)c2c(O)c3ccccc3oc2=O)cc1`: the negative logarithm of the IC50 (pIC50) was 6.31. For the compound `CC(=O)Oc1ccc(/C=C/C(=O)Oc2ccc(C(c3c(O)c4ccccc4oc3=O)c3c(O)c4ccccc4oc3=O)cc2)cc1OC(C)=O`, the pIC50 is 5.59.

Compound `O=C(CCCCC1CCSS1)Oc1ccc(C(c2c(O)c3ccccc3oc2=O)c2c(O)c3ccccc3oc2=O)cc1` (configuration not stated) gave a pIC50 of 5.64.

Consider `Cc1ccc(C(=O)OCCN(CCOC(=O)c2ccc(C)cc2)c2ccc(C(c3c(O)c4ccccc4oc3=O)c3c(O)c4ccccc4oc3=O)cc2)cc1`, for which the negative-log IC50 (pIC50) is 5.74. Still for that read-out and setting: with `O=C(Oc1ccc(C(c2c(O)c3ccccc3oc2=O)c2c(O)c3ccccc3oc2=O)cc1)c1ccccc1O` the figure was 5.00; with `O=C(Oc1ccc(C(c2c(O)c3ccccc3oc2=O)c2c(O)c3ccccc3oc2=O)cc1)c1ccc(O)cc1O`, 5.31. On the same count and under the same terms, as for `O=C(OCCN(CCOC(=O)c1ccc(Br)cc1)c1ccc(C(c2c(O)c3ccccc3oc2=O)c2c(O)c3ccccc3oc2=O)cc1)c1ccc(Br)cc1`, the figure is 6.02; as for `O=C(Oc1ccc(C(c2c(O)c3ccccc3oc2=O)c2c(O)c3ccccc3oc2=O)cc1)c1ccc(O)cc1`, 5.49; as for `CC(=O)Oc1cc(OC(C)=O)cc(C(=O)Oc2ccc(C(c3c(O)c4ccccc4oc3=O)c3c(O)c4ccccc4oc3=O)cc2)c1`, 5.03.

In turn, `CC(=O)Oc1cccc(C(=O)Oc2ccc(C(c3c(O)c4ccccc4oc3=O)c3c(O)c4ccccc4oc3=O)cc2)c1` showed a negative-log IC50 (pIC50) of 5.15. With `CC(=O)Oc1ccc(C(=O)Oc2ccc(C(c3c(O)c4ccccc4oc3=O)c3c(O)c4ccccc4oc3=O)cc2)c(OC(C)=O)c1`, the pIC50 is 4.72. In the case of `O=C(Oc1ccc(C(c2c(O)c3ccccc3oc2=O)c2c(O)c3ccccc3oc2=O)cc1)c1cccc(O)c1`, the pIC50 is 5.21.

For `O=C(Oc1ccc(C(c2c(O)c3ccccc3oc2=O)c2c(O)c3ccccc3oc2=O)cc1)c1cc(O)ccc1O`, the pIC50 was 4.60. On the same count and under the same terms, with `O=C(/C=C/c1ccc(O)c(O)c1)Oc1ccc(C(c2c(O)c3ccccc3oc2=O)c2c(O)c3ccccc3oc2=O)cc1` the figure was 5.59; with `Cc1ccc(C(=O)Oc2cc(OC(=O)c3ccc(C)cc3)cc(C(c3c(O)c4ccccc4oc3=O)c3c(O)c4ccccc4oc3=O)c2)cc1`, 6.24; with `O=C(Oc1ccc(C(c2c(O)c3ccccc3oc2=O)c2c(O)c3ccccc3oc2=O)cc1)c1ccc(O)c(O)c1`, 5.82. Turning to `COc1ccc(/C=C/C(=O)Oc2ccc(C(c3c(O)c4ccccc4oc3=O)c3c(O)c4ccccc4oc3=O)cc2)cc1OC`, the pIC50 was 5.59. The same measure, in the same setting: as for `CC(=O)Oc1ccccc1C(=O)Oc1ccc(C(c2c(O)c3ccccc3oc2=O)c2c(O)c3ccccc3oc2=O)cc1`, the figure is 4.57; as for `CC(=O)Oc1ccc(C(=O)Oc2ccc(C(c3c(O)c4ccccc4oc3=O)c3c(O)c4ccccc4oc3=O)cc2)cc1`, 5.34. With `CC(=O)Oc1ccc(OC(C)=O)c(C(=O)Oc2ccc(C(c3c(O)c4ccccc4oc3=O)c3c(O)c4ccccc4oc3=O)cc2)c1`, the pIC50 is 5.01.

As for `CC(=O)Oc1ccc(C(=O)Oc2ccc(C(c3c(O)c4ccccc4oc3=O)c3c(O)c4ccccc4oc3=O)cc2)cc1OC(C)=O`, the pIC50 was 5.72. Same read-out and setting: with `O=C(Oc1ccc(C(c2c(O)c3ccccc3oc2=O)c2c(O)c3ccccc3oc2=O)cc1)c1cc(O)cc(O)c1` the figure was 4.28. The same measure, in the same setting: as for `O=C(Oc1c(C(c2ccc(O)cc2)c2c(O)c3ccccc3oc2=O)c(=O)oc2ccccc12)c1ccc(O)c(O)c1` (configuration not stated), the figure is 4.43.

The target in the next assay is T1, Hepatocyte growth factor receptor. As to the kind of experiment: Inhibition of c-Met (unknown origin) using poly (Glu,Tyr) at 4:1 ratio as substrate incubated for 60 mins by ELISA. A general note: An ELISA detects its analyte on a solid surface through an enzyme-linked reagent.
Consider `CCCCCCC(NC(=O)c1cc2ccc(O)c(O)c2oc1=O)C(=O)Nc1cc2ccc(O)c(O)c2oc1=O` (configuration not stated), for which the pIC50 was 7.52.

On to `CC(C)CC(NC(=O)c1cc2ccc(O)c(O)c2oc1=O)C(=O)Nc1cc2ccc(O)c(O)c2oc1=O` (configuration not stated), for which the pIC50 is 6.97.

Source of the values: ChEMBL document CHEMBL5260826, “Enzyme inhibitory activities an insight into the structure-Activity relationship of biscoumarin derivatives” (Eur J Med Chem, 2017).
